{"source": "patent US20100120700A1", "about": "“METHODS AND COMPOSITIONS FOR TREATING CERVICAL CANCER” (priority 2000, published 2010)", "test_in_all_cases": "G assay PDZ-PL binding", "conditions_in_all_cases": "peptide 10 uM, protein 5", "key": {"NeDLG domain 3": {"molecular_target": "T1, NeDLG domain 3 (Homo sapiens, UniProt Q92796)", "T1 construct": "made in house; host or cells: E. coli (DH5alpha, BL21 or JM109), vector pGEX-3X", "T1 sequence (Q92796 with tags, fused parts or gaps)": "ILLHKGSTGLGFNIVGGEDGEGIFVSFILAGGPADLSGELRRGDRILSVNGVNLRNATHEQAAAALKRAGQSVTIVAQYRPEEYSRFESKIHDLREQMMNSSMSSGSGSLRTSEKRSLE", "protocol": "(§1) (1) A PDZ-domain polypeptide is bound to a surface, e.g. a protein binding surface. In a preferred embodiment, a GST/PDZ fusion protein containing one or more PDZ domains is bound to a polystyrene 96-well plate. […] In one embodiment, the GST/PDZ fusion protein is bound via an anti-GST antibody that is coated onto the 96-well plate. Adequate binding to the plate can be achieved when: • a. 100 uL per well of 5 ug/mL goat anti-GST polyclonal antibody (Pierce) in PBS is added to a polystyrene 96-well plate (e.g., Num Polysorb) at 4° C. for 12 hours. • b. The plate is blocked by addition of 200 uL per well of PBS/BSA for 2 hours at 4° C. • c. The plate is washed 3 times with PBS. • d. 50 uL per well of 5 ug/mL GST/PDZ fusion protein) or, as a negative control, GST polypeptide alone (i.e. not a fusion protein) in PBS/BSA is added to the plate for 2 hours at 4° C. • e. The plate is again washed 3 times with PBS.\n(§2) (2) Biotinylated PL peptides are allowed to react with the surface by addition of 50 uL per well of 20 uM solution of the biotinylated peptide in PBS/BSA for 10 minutes at 4° C., followed by an additional 20 minute incubation at 25° C.\n(§3) (3) The binding of the biotinylated peptide to the GST/PDZ fusion protein surface can be detected using a variety of methods and detectors known to one of skill in the art. In one embodiment, 100 uL per well of 0.5 ug/mL streptavidin-horse radish peroxidase (HRP) conjugate dissolved in BSA/PBS is added and allowed to react for 20 minutes at 4° C. The plate is then washed 5 times with 50 mM Tris pH 8.0 containing 0.2% Tween 20, and developed by addition of 100 uL per well of HRP-substrate solution (TMB, Dako) for 20 minutes at room temperature (RT). The reaction of the HRP and its substrate is terminated by addition of 100 uL per well of 1M sulfuric acid, and the absorbance of each well of the plate is read at 450 nm.\n(§4) (4) Specific binding of a PL peptide and a PDZ domain polypeptide is determined by comparing the signal from the well(s) in which the PL peptide and PDZ domain polypeptide are combined, with the background signal(s). The background signal is the signal found in the negative control(s). Typically a specific or selective reaction will be at least twice background signal, more typically more than 5 times background, and most typically 10 or more times the background signal. In addition, a statistically significant reaction will involve multiple measurements of the reaction with the signal and the background differing by at least two standard errors, more typically four standard errors, and most typically six or more standard errors. Correspondingly, a statistical test (e.g. a T-test) comparing repeated measurements of the signal with-repeated measurements of the background will result in a p-value<0.05, more typically a p-value<0.01, and most typically a p-value<0.001 or less. As noted, in an embodiment of the “G” assay, the signal from binding of a given PL peptide to immobilized (surface bound) GST polypeptide alone is one suitable negative control (sometimes referred to as “B 1”). Because all measurement are done in multiples (i.e. at least duplicate) the arithmetic mean (or, equivalently, average.) of several measurements is used in determining the binding, and the standard error of the mean is used in determining the probable error in the measurement of the binding. The standard error of the mean of N measurements equals the square root of the following: the sum of the squares of the difference between each measurement and the mean, divided by the product of (N) and (N−1). Thus, in one embodiment, specific binding of the PDZ protein to the platebound peptide is determined by comparing the mean signal (“mean S”) and standard error of the signal (“SE”) for a particular PL-PDZ combination with the mean B1. […]"}, "KIAA1719 domain 3": {"molecular_target": "T2, KIAA1719 domain 3 (Homo sapiens, UniProt Q9C0E4)", "T2 construct": "made in house; host or cells: E. coli (DH5alpha, BL21 or JM109)", "T2 sequence (Q9C0E4 with tags, fused parts or gaps)": "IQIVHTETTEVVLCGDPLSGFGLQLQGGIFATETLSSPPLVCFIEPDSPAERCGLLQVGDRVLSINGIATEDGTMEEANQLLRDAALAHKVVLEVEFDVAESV", "protocol": "as §1, §2, §3, §4"}, "ZO-2 domain 2": {"molecular_target": "T3, ZO-2 domain 2 (Homo sapiens, UniProt Q9UDY2)", "T3 construct": "made in house; host or cells: E. coli (DH5alpha, BL21 or JM109)", "T3 sequence (Q9UDY2 with tags, fused parts or gaps)": "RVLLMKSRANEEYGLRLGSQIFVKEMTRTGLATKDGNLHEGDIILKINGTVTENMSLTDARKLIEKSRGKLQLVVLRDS", "protocol": "as §1, §2, §3, §4"}, "INADL domain 4": {"molecular_target": "T4, INADL domain 4 (Homo sapiens, UniProt Q8NI35)", "T4 construct": "made in house; host or cells: E. coli (DH5alpha, BL21 or JM109)", "T4 sequence (Q8NI35 with tags, fused parts or gaps)": "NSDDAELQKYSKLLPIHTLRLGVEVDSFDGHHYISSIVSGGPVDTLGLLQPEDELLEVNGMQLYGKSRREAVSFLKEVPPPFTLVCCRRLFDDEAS", "protocol": "as §1, §2, §3, §4"}, "KIAA1526 #125.1 domain 1": {"molecular_target": "T5, KIAA1526 #125.1 domain 1 (Homo sapiens, UniProt Q9P202)", "T5 construct": "made in house; host or cells: E. coli (DH5alpha, BL21 or JM109)", "T5 sequence (Q9P202 130-232)": "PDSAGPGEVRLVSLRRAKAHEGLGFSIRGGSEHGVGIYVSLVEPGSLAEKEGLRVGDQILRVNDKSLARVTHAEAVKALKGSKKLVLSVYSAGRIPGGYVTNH", "protocol": "as §1, §2, §3, §4"}, "Serine Protease domain 1": {"molecular_target": "T6, Serine Protease domain 1 (Homo sapiens, UniProt O43464)", "T6 construct": "made in house; host or cells: E. coli (DH5alpha, BL21 or JM109)", "T6 sequence (O43464 344-452)": "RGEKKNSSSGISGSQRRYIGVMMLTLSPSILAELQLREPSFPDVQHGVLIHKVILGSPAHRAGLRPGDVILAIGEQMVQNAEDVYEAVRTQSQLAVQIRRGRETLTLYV", "protocol": "as §1, §2, §3, §4"}, "[1]": {"molecular_target": "T7, Syntrophin beta 2 domain 1 (Homo sapiens, UniProt Q13425)", "T7 construct": "made in house; host or cells: E. coli (DH5alpha, BL21 or JM109)", "T7 sequence (Q13425 with tags, fused parts or gaps)": "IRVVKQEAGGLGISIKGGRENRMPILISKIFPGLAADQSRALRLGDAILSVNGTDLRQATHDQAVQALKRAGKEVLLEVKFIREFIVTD", "protocol": "as §1, §2, §3, §4"}, "PDZ-73 domain 2": {"molecular_target": "T8, PDZ-73 domain 2 (Homo sapiens, UniProt Q9Y6N9)", "T8 construct": "made in house; host or cells: E. coli (DH5alpha, BL21 or JM109), vector pGEX-3X", "T8 sequence (Q9Y6N9 with tags, fused parts or gaps)": "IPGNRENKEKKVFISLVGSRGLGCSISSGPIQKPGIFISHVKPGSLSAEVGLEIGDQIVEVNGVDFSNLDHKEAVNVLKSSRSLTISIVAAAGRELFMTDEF", "protocol": "as §1, §2, §3, §4"}, "EBP50 #311.1 domain 1": {"molecular_target": "T9, EBP50 #311.1 domain 1 (Homo sapiens, UniProt O14745)", "T9 construct": "made in house; host or cells: E. coli (DH5alpha or BL-21)", "T9 sequence (O14745 with tags, fused parts or gaps)": "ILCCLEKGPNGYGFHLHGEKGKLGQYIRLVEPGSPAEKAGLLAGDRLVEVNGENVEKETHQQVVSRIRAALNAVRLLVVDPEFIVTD", "protocol": "as §1, §2, §3, §4"}, "SITAC-18 domain 2": {"molecular_target": "T10, SITAC-18 domain 2 (Homo sapiens, UniProt Q9H190)", "T10 construct": "made in house; host or cells: E. coli (DH5alpha, BL21 or JM109)", "T10 sequence (Q9H190 with tags, fused parts or gaps)": "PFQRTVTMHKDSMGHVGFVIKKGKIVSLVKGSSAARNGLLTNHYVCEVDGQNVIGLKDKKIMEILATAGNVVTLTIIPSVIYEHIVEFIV", "protocol": "as §1, §2, §3, §4"}, "NeDLG domain 1, 2": {"molecular_target": "T11, NeDLG domain 1, 2 (Homo sapiens, UniProt Q92796)", "T11 construct": "the DNA portion cloned represents the PDZ domains and the cDNA portion located between individual domains; made in house; host or cells: E. coli (DH5alpha, BL21 or JM109)", "T11 sequence (Q92796 129-315 limits assumed)": "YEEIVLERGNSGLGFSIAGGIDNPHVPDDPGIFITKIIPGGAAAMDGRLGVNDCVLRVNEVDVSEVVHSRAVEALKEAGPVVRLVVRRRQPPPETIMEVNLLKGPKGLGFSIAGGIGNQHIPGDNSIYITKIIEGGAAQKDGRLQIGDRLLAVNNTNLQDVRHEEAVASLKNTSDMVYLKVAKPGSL", "protocol": "as §1, §2, §3, §4"}, "PTN-4 domain 1": {"molecular_target": "T12, PTN-4 domain 1 (Homo sapiens, UniProt P29074)", "T12 construct": "made in house; host or cells: E. coli (DH5alpha, BL21 or JM109), vector pGEX-3X", "T12 sequence (P29074 518-605)": "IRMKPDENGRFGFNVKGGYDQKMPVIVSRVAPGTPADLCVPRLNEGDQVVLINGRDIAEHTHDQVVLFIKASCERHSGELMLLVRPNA", "protocol": "as §1, §2, §3, §4"}, "PDZK1 domain 3": {"molecular_target": "T13, PDZK1 domain 3 (Homo sapiens, UniProt Q5T2W1)", "T13 construct": "made in house; host or cells: E. coli (DH5alpha, BL21 or JM109)", "protocol": "as §1, §2, §3, §4"}, "PAR3 #278.1 domain 3": {"molecular_target": "T14, PAR3 #278.1 domain 3 (Homo sapiens, UniProt Q8TEW0)", "T14 construct": "made in house; host or cells: E. coli (DH5alpha, BL21 or JM109)", "T14 sequence (Q8TEW0 579-681)": "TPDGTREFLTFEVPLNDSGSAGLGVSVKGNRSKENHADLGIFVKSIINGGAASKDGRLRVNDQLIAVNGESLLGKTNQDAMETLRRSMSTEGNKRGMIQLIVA", "protocol": "as §1, §2, §3, §4"}}, "note": "Several values for one entry are separate records, joined by “and”; a condition that tells them apart may be missing. Equal values may be shown once."}
{"substance": "20 mer peptide corresponding to the C-terminus of HPV16 E6 (PDZ ligand), biotinylated in binding assays; ends SSRTRRETQL (SEQ ID NO: 13) [HPV E6 #16]", "values": [{"measurement": "Ave OD", "setting": "NeDLG domain 3; A450 nm", "result": "0.632 and 0.5225"}, {"measurement": "OD S/N", "setting": "NeDLG domain 3; vs GST only well", "result": "3.69 and 2.49"}, {"measurement": "Ave OD", "setting": "KIAA1719 domain 3; A450 nm", "result": 0.346}, {"measurement": "OD S/N", "setting": "KIAA1719 domain 3; vs GST only well", "result": 1.65}, {"measurement": "Ave OD", "setting": "ZO-2 domain 2; A450 nm", "result": 0.3565}, {"measurement": "OD S/N", "setting": "ZO-2 domain 2; vs GST only well", "result": 2.15}, {"measurement": "Ave OD", "setting": "INADL domain 4; A450 nm", "result": 0.357}, {"measurement": "OD S/N", "setting": "INADL domain 4; vs GST only well", "result": 2.15}, {"measurement": "Ave OD", "setting": "KIAA1526 #125.1 domain 1; A450 nm", "result": "1.379 and 0.7665"}, {"measurement": "OD S/N", "setting": "KIAA1526 #125.1 domain 1; vs GST only well", "result": "6.69 and 3.57"}, {"measurement": "Ave OD", "setting": "Serine Protease domain 1; A450 nm", "result": 0.3425}, {"measurement": "OD S/N", "setting": "Serine Protease domain 1; vs GST only well", "result": 1.55}, {"measurement": "Ave OD", "setting": "[1]; A450 nm", "result": "1.1585 and 1.0325"}, {"measurement": "OD S/N", "setting": "[1]; vs GST only well", "result": "5.81 and 5.35"}, {"measurement": "Ave OD", "setting": "PDZ-73 domain 2; A450 nm", "result": 0.5615}, {"measurement": "OD S/N", "setting": "PDZ-73 domain 2; vs GST only well", "result": 1.95}, {"measurement": "Ave OD", "setting": "EBP50 #311.1 domain 1; A450 nm", "result": 0.4325}, {"measurement": "OD S/N", "setting": "EBP50 #311.1 domain 1; vs GST only well", "result": 2.05}, {"measurement": "Ave OD", "setting": "SITAC-18 domain 2; A450 nm", "result": 0.484}, {"measurement": "OD S/N", "setting": "SITAC-18 domain 2; vs GST only well", "result": 2.46}, {"measurement": "Ave OD", "setting": "NeDLG domain 1, 2; A450 nm", "result": "3.401 and 3.118"}, {"measurement": "OD S/N", "setting": "NeDLG domain 1, 2; vs GST only well", "result": "19.83 and 17.13"}, {"measurement": "Ave OD", "setting": "PTN-4 domain 1; A450 nm", "result": 0.8085}, {"measurement": "OD S/N", "setting": "PTN-4 domain 1; vs GST only well", "result": 4.03}, {"measurement": "Ave OD", "setting": "PDZK1 domain 3; A450 nm", "result": 0.5}, {"measurement": "OD S/N", "setting": "PDZK1 domain 3; vs GST only well", "result": 1.92}, {"measurement": "Ave OD", "setting": "PAR3 #278.1 domain 3; A450 nm", "result": 0.352}, {"measurement": "OD S/N", "setting": "PAR3 #278.1 domain 3; vs GST only well", "result": 1.80}]}
